Data from patent US20080227780A1, “SOLUBLE EPOXIDE HYDROLASE INHIBITORS” (Arete Therapeutics, Inc., priority 2007, published 2008).

system: soluble epoxide hydrolase (sEH); test: Fluorescent assay for soluble epoxide hydrolase (CMNPC substrate), percent inhibition at the recited concentration; assay type: biochemical; conditions: Inhibition Conc. 50 nM
Source text: Fluorescent Assay for Mouse and Human Soluble Epoxide Hydrolase Recombinant mouse sEH (MsEH) and human sEH (HsEH) were produced in a baculovirus expression system as previously reported. Grant et al., J. Biol. Chem., 268:17628-17633 (1993); Beetham et al., Arch. Biochem. Biophys., 305:197-201 (1993). The expressed proteins were purified from cell lysate by affinity chromatography. Wixtrom et al., Anal. Biochem., 169:71-80 (1988). Protein concentration was quantified using the Pierce BCA assay using bovine serum albumin as the calibrating standard. The preparations were at least 97% pure as judged by SDS-PAGE and scanning densitometry. They contained no detectable esterase or glutathione transferase activity which can interfere with the assay. The assay was also evaluated with similar results in crude cell lysates or homogenate of tissues. The IC50s for each inhibitor were determined according to the following procedure: […] Jones P. D. et al.; Analytical Biochemistry 2005; 343: pp. 66-75) Bis/Tris HCl 25 mM pH 7.0 containing 0.1 mg/mL of BSA (buffer […] at 0.25 mM in DMSO. Mother solution of enzyme in buffer A (Mouse sEH at 6 μg/mL and Human sEH at 5 μg/mL). Inhibitor dissolved in DMSO at the appropriate concentration. In a black 96 well plate, fill all the wells with 150 μL of buffer A. Add 2 μL of DMSO in well A2 and A3, and then add 2 μL of inhibitor solution in A1 and A4 through A12. Add 150 μL of buffer A in row A, then mix several time and transfer 150 μL to row B. Repeat this operation up to row H. The 150 μL removed from row H is discarded. Add 20 μL of buffer A in column 1 and 2, then add 20 μL of enzyme solution to column 3 to 12. Incubate the plate for 5 minutes in the plate reader at 30° C. During incubation prepare the working solution of substrate by mixing 3.68 mL of buffer A (4×0.920 mL) with 266 μL (2×133 μL) of substrate solution). At t=0, add 30 μL of working substrate solution with multi-channel pipette labeled “Briggs 303” and start the reading ([S]final: 5 μM). Read with ex: 330 nm (20 nm) and em: 465 nm (20 nm) every 30 second for 10 minutes. The velocities are used to analyze and calculate the IC50s. Tables 1-7 above provide the percent inhibition of the enzyme when tested at the concentration recited therein.

| Structure (SMILES) | % inh. [%] |
| --- | --- |
| O=C(NC1CCN(S(=O)(=O)c2ccc(C(F)(F)F)cc2)CC1)NC12CC3CC(CC(C3)C1)C2 [Compound 7-36, 1-adamantyl-3-(1-(4-(trifluoromethyl)phenylsulfonyl)piperidin-4-yl)urea] | 99 |
| O=C(Nc1ccc(C(F)(F)F)cc1)NC1CCN(c2ncccc2C(F)(F)F)CC1 [Compound 2-2] | 97 |
| CC(=O)N1CCC(NC(=O)NC2CCC(C)(C)CC2)CC1 [Compound 7-6, 1-(1-acetylpiperidin-4-yl)-3-(4,4-dimethylcyclo-hexyl)urea] | 70 |
| O=C(NC1CCN(S(=O)(=O)c2ccc(Cl)cc2)CC1)NC12CC3CC(CC(C3)C1)C2 [Compound 7-27] | 95 |
| NS(=O)(=O)c1cccc(C(=O)N2CCC(NC(=O)Nc3ccc(C(F)(F)F)cc3)CC2)c1 [Compound 4-6, 3-(4-(3-(4-(trifluoromethyl)phenyl)ureido)piperidine-1-carbonyl)benzene-sulfonamide] | 99 |
| O=C(NC1CCN(S(=O)(=O)c2cccc(C(F)(F)F)c2)CC1)NC12CC3CC(CC(C3)C1)C2 [Compound 7-38, 1-adamantyl-3-(1-(3-(trifluoromethyl)phenylsulfonyl)piperidin-4-yl)urea] | 100 |
| CC(=O)N1CCC(NC(=O)NC2CCC3CCCCC3C2)CC1 (centres unmarked) [Compound 7-5, 1-(1-acetylpiperidin-4-yl)-3-(decahydronaphthalen-2-yl)urea] | 93 |
| O=C(NC1CCN(S(=O)(=O)c2ccc3ccccc3c2)CC1)NC12CC3CC(CC(C3)C1)C2 [Compound 7-25, 1-adamantyl-3-(1-(naphthalen-2-ylsulfonyl)piperidin-4-yl)urea] | 99 |
| CCC1CCC(NC(=O)NC2CCN(C(C)=O)CC2)CC1 (centres unmarked) [Compound 7-4, 1-(1-acetylpiperidin-4-yl)-3-(4-ethylcyclohexyl)urea] | 72 |
| CCOC(=O)N1CCC(NC(=O)Nc2ccc(C(F)(F)F)cc2)CC1 [Compound 7-15, ethyl 4-(3-(4-(trifluoromethyl)phenyl)ureido)piperidine-1-carboxylate] | 93 |
| CC(C)(C)OC(=O)N1CCC(NC(=O)Nc2ccc(Oc3ccccc3)cc2)CC1 [Compound 7-9, tert-butyl 4-(3-(4-phenoxyphenyl)ureido)-piperidine-1-carboxylate] | 92 |
| CNS(=O)(=O)c1cccc(C(=O)N2CCC(NC(=O)Nc3ccc(C(F)(F)F)cc3)CC2)c1 [Compound 4-9, N-methyl-3-(4-(3-(4-(trifluoromethyl)phenyl)ureido)piperidine-1-carbonyl)benzene-sulfonamide] | 99 |

same assay, conditions: Inhibition Conc. 200 nM

| Structure (SMILES) | % inh. [%] |
| --- | --- |
| CC(=O)N1CCC(NC(=O)NC2CCCCCCC2)CC1 [Compound 7-84, 1-(1-acetylpiperidin-4-yl)-3-cyclooctylurea] | 92 |
| O=C(Nc1ccc(C(F)(F)F)cc1)NC1CCN(c2nccs2)CC1 [Compound 2-8, 1-(1-(thiazol-2-yl)piperidin-4-yl)-3-(4-(trifluoromethyl)phenyl)urea] | 98 |
| O=C(NC1CCN(C(=O)CCCO)CC1)NC12CC3CC(CC(C3)C1)C2 [Compound 7-73, 1-adamantyl-3-(1-(4-hydroxybutanoyl)piperidin-4-yl)urea] | 94 |
| CC(=O)N1CCC(NC(=O)N2CCC(NC(=O)NC34CC5CC(CC(C5)C3)C4)CC2)CC1 [Compound 7-57, N-(1-acetylpiperidin-4-yl)-4-(3-adamantylureido)piperidine-1-carboxamide] | 90 |
| CC(C)(C)S(=O)(=O)N1CCC(NC(=O)NC23CC4CC(CC(C4)C2)C3)CC1 [Compound 7-78, 1-(1-(tert-butylsulfonyl)piperidin-4-yl)-3-adamantylurea] | 95 |
| CC(=O)N1CCC(NC(=O)NCCC(c2ccccc2)c2ccccc2)CC1 [Compound 1-7, 1-(1-acetypiperidin-4-yl)-3-(3,3-diphenylpropyl)urea] | 100 |
| CC(=O)N1CCC(NC(=O)NC23CCC(C)(CC2)CC3)CC1 [Compound 7-58, 1-(1-acetylpiperidin-4-yl)-3-(4-methylbicyclo[2.2.2]octan-1-yl)urea] | 84 |
| O=C(NC1CCN(S(=O)(=O)CCCO)CC1)NC12CC3CC(CC(C3)C1)C2 [Compound 7-74, 1-adamantyl-3-(1-(3-hydroxypropylsulfonyl)piperidin-4-yl)urea] | 99 |
| CC(C)(C)OC(=O)N1CCC(NC(=O)NC2CCCCCC2)CC1 [Compound 7-48, tert-butyl 4-(3-cycloheptylureido)piperidine-1-carboxylate] | 100 |

same assay, conditions: Inhibition Conc. 500 nM

| Structure (SMILES) | % inh. [%] |
| --- | --- |
| CC(=O)N1CCC(NC(=O)NC23CC4CC(CC(F)(C4)C2)C3)CC1 [Compound 3-4, 1-(1-acetylpiperidin-4-yl)-3-(3-fluoroadamant-1-yl)urea] | 82 |
| CC(=O)N1CCC(NC(=O)Nc2ccc(S(=O)(=O)N3CCOCC3)cc2)CC1 [Compound 5-2, 1-(1-acetylpiperidin-4-yl)-3-(4-(morpholinosulfonyl)phenyl)urea] | 90 |
| CNS(=O)(=O)c1ccc(C(=O)N2CCC(NC(=O)Nc3ccc(F)cc3)CC2)cc1 [Compound 4-11, 4-(4-(3-(4-fluorophenyl)ureido)piperidine-1-carbonyl)-N-methylbenzene-sulfonamide] | 94 |
| CC(=O)N1CCC(NC(=O)Nc2ccc3ncccc3c2)CC1 [Compound 6-4, 1-(1-acetylpiperidin-4-yl)-3-(quinolin-6-yl)urea] | 70 |

same assay, conditions: Inhibition Conc. 2000 nM

| Structure (SMILES) | % inh. [%] |
| --- | --- |
| CC(=O)N1CCC(NC(=O)NC2CCOCC2)CC1 [Compound 8-4, 1-(1-acetylpiperidin-4-yl)-3-(tetrahydro-2H-pyran-4-yl)urea] | 23 |
| CC(=O)N1CCC(NC(=O)Nc2ccc3nc(C)sc3c2)CC1 [Compound 6-15, 1-(1-acetylpiperidin-4-yl)-3-(2-methylbenzo[d]thiazol-6-yl)urea] | 70 |
| CC(=O)N1CCC(NC(=O)Nc2ccc(C#N)cc2)CC1 [Compound 7-80, 1-(1-acetylpiperidin-4-yl)-3-(4-cyanophenyl)urea] | 80 |
| O=C(Nc1ccc(C(F)(F)F)cc1)NC1CCN(c2ccccc2F)CC1 [Compound 2-13, 1-(1-(2-fluorophenyl)piperidin-4-yl)-3-(4-(trifluoromethyl)phenyl)urea] | 18 |
| CC(=O)N1CCC(NC(=O)NC2CCC3(CCCC3)CC2)CC1 [Compound 7-83, 1-(1-acetylpiperidin-4-yl)-3-(spiro[4.5]decan-8-yl)urea] | 100 |
| CC(=O)N1CCC(NC(=O)Nc2cccnc2)CC1 [Compound 6-12, 1-(1-acetylpiperidin-4-yl)-3-(pyridin-3-yl)urea] | 40 |
| CC(C)(C)C(=O)N1CCC(NC(=O)Nc2ccc(S(C)(=O)=O)cc2)CC1 [Compound 7-70, 1-(4-(methylsulfonyl)phenyl)-3-(1-pivaloylpiperidin-4-yl)urea] | 90 |
| CC(=O)N1CCC(NC(=O)NC2CCN(C(=O)C(C)(C)C)CC2)CC1 [Compound 8-6, 1-(1-acetylpiperidin-4-yl)-3-(1-pivaloylpiperidin-4-yl)urea] | 69 |
| CC(=O)N1CCC(NC(=O)NC2CCC2)CC1 [Compound 7-63, 1-(1-acetylpiperidin-4-yl)-3-cyclobutylurea] | 76 |
| CC(=O)N1CCC(NC(=O)Nc2ccc(S(C)(=O)=O)cc2)CC1 [Compound 7-60, 1-(1-acetylpiperidin-4-yl)-3-(4-(methylsulfonyl)phenyl)urea] | 33 |
| CC(C)(C)OC(=O)N1CCC(NC(=O)Nc2ccc(C(=O)O)cc2)CC1 [Compound 7-54, 4-(3-(1-(tert-butoxycarbonyl)piperidin-4-yl)ureido)benzoic acid] | 55 |

same assay, conditions: Inhibition Conc. 5000 nM

| Structure (SMILES) | % inh. [%] |
| --- | --- |
| CC(=O)N1CCC(NC(=O)NC23CC4CC(C2)C(O)C(C4)C3)CC1 (single isomer, unassigned) [Compound 3-5, 1-(1-acetylpiperidin-4-yl)-3-(4-hydroxyadamant-1-yl)urea] | 87 |
| CCCOc1ccc(NC(=O)NC2CCN(C(C)=O)CC2)cc1 [Compound 7-11, 1-(1-acetylpiperidin-4-yl)-3-(4-propoxyphenyl)urea] | 94 |
